Measured values taken from the supplement of paper PMC11451515.

Test system: NOMO1
Assay: cell viability relative to DMSO control; higher = less cytotoxic
Details: 48 h
How it was run: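 Library compounds in DMSO were pin-dosed into 1536-well plates (5 μl) holding NOMO1 or SEM (500 cells/well) or P12-Ichikawa (1000 cells/well) leukemia cells, across an 11-point threefold series of 47 μM to 0.79 nM. Each cell line had been adapted for at least four passages in each medium. CellTiter-Glo One luminescence was read after 48 h at 37°C. Viability is the per-plate percentage relative to DMSO wells, with cell-free wells as background.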

[1] = HPLM + 10% dialyzed FBS, 0.000781 µM
[2] = HPLM + 10% dialyzed FBS, 0.00234 µM
[3] = HPLM + 10% dialyzed FBS, 0.00702 µM
[4] = HPLM + 10% dialyzed FBS, 0.0211 µM
[5] = HPLM + 10% dialyzed FBS, 0.0632 µM
[6] = HPLM + 10% dialyzed FBS, 0.19 µM
[7] = HPLM + 10% dialyzed FBS, 0.569 µM
[8] = HPLM + 10% dialyzed FBS, 1.71 µM
[9] = HPLM + 10% dialyzed FBS, 5.12 µM
[10] = HPLM + 10% dialyzed FBS, 15.4 µM
[11] = HPLM + 10% dialyzed FBS, 46.1 µM
[12] = RPMI 5 mM glucose + 10% FBS, 0.000781 µM
[13] = RPMI 5 mM glucose + 10% FBS, 0.00234 µM
[14] = RPMI 5 mM glucose + 10% FBS, 0.00702 µM
[15] = RPMI 5 mM glucose + 10% FBS, 0.0211 µM
[16] = RPMI 5 mM glucose + 10% FBS, 0.0632 µM
[17] = RPMI 5 mM glucose + 10% FBS, 0.19 µM
[18] = RPMI 5 mM glucose + 10% FBS, 0.569 µM
[19] = RPMI 5 mM glucose + 10% FBS, 1.71 µM
[20] = RPMI 5 mM glucose + 10% FBS, 5.12 µM
[21] = RPMI 5 mM glucose + 10% FBS, 15.4 µM
[22] = RPMI 5 mM glucose + 10% FBS, 46.1 µM
[23] = RPMI 5 mM glucose + 10% dialyzed FBS, 0.000781 µM
[24] = RPMI 5 mM glucose + 10% dialyzed FBS, 0.00234 µM
[25] = RPMI 5 mM glucose + 10% dialyzed FBS, 0.00702 µM
[26] = RPMI 5 mM glucose + 10% dialyzed FBS, 0.0211 µM
[27] = RPMI 5 mM glucose + 10% dialyzed FBS, 0.0632 µM
[28] = RPMI 5 mM glucose + 10% dialyzed FBS, 0.19 µM
[29] = RPMI 5 mM glucose + 10% dialyzed FBS, 0.569 µM
[30] = RPMI 5 mM glucose + 10% dialyzed FBS, 1.71 µM
[31] = RPMI 5 mM glucose + 10% dialyzed FBS, 5.12 µM
[32] = RPMI 5 mM glucose + 10% dialyzed FBS, 15.4 µM
[33] = RPMI 5 mM glucose + 10% dialyzed FBS, 46.1 µM

Structure (SMILES) | cell viability [1] | cell viability [2] | cell viability [3] | cell viability [4] | cell viability [5] | cell viability [6] | cell viability [7] | cell viability [8] | cell viability [9] | cell viability [10] | cell viability [11] | cell viability [12] | cell viability [13] | cell viability [14] | cell viability [15] | cell viability [16] | cell viability [17] | cell viability [18] | cell viability [19] | cell viability [20] | cell viability [21] | cell viability [22] | cell viability [23] | cell viability [24] | cell viability [25] | cell viability [26] | cell viability [27] | cell viability [28] | cell viability [29] | cell viability [30] | cell viability [31] | cell viability [32] | cell viability [33]
COc1cc2c(Nc3ccc(Cl)c(Cl)c3F)ncnc2cc1OC[C@@H]1C[C@@H]2CN(C)C[C@@H]2C1 | 109% | 113% | 116% | 119% | 115% | 88.4% | 81.2% | 73% | 50.7% | 53.4% | 20.7% | 114% | 121% | 131% | 130% | 127% | 126% | 119% | 117% | 87.9% | 101% | 22.5% | 101% | 124% | 125% | 118% | 124% | 123% | 112% | 98.3% | 79.1% | 83.9% | 24.3%
CNC1[C@@H](O)C(O[C@@H]2C(O)C(O[C@H]3O[C@H]([C@@H](C)NC)CC[C@H]3N)[C@@H](N)C[C@H]2N)OC[C@]1(C)O (some centres undefined) | 98.9% | 102% | 104% | 106% | 108% | 98.1% | 106% | 87.4% | 85.3% | 91.4% | 63.7% | 93.4% | 99.6% | 93.2% | 97.3% | 91.3% | 91.2% | 91.2% | 98.9% | 87.7% | 92.8% | 96.7% | 92.4% | 84.5% | 87.1% | 81.2% | 88.5% | 87.7% | 92.1% | 90% | 83.1% | 89.8% | 76.5%
CC(C)(C)C(=O)OCOP(=O)(COCCn1cnc2c(N)ncnc21)OCOC(=O)C(C)(C)C | 86.9% | 99.5% | 93.6% | 108% | 88.3% | 62.2% | 68.2% | 33.9% | 32.2% | 18.9% | 2.01% | 109% | 96% | 98.2% | 98.6% | 70.3% | 61.4% | 44.4% | 19.9% | 15.8% | 9.1% | 2.21% | 101% | 93.6% | 91.9% | 93.7% | 78.5% | 66.9% | 47.7% | 28.6% | 14.9% | 14.2% | 2.41%
C[S+](=O)([O-])N(Cc1ccco1)CC(O)Cn1c2ccccc2c2ccccc21 (centres undefined) | 95.3% | 99% | 102% | 105% | 86.5% | 91.2% | 93.9% | 82.8% | 83.6% | 73.6% | 35.2% | 88.4% | 91.6% | 91.4% | 92.2% | 94.3% | 94% | 90% | 80.7% | 79.6% | 86.3% | 52.8% | 97.9% | 89.2% | 93.3% | 90.3% | 93.3% | 90.1% | 97.8% | 85.1% | 80.8% | 77.9% | 50.8%
[NH2][Pt]([NH2])([Cl])[Cl] | 94.8% | 110% | 91.2% | 103% | 121% | 110% | 93.8% | 99.4% | 95.5% | 90.5% | 94% | 83.7% | 92.2% | 79.8% | 99.6% | 89.7% | 103% | 85.9% | 88.1% | 84.6% | 82.4% | 81.3% | 90% | 90.6% | 88% | 85.8% | 97.4% | 94.7% | 96.8% | 96% | 94.9% | 89.3% | 101%
CCC(=O)OCC(=O)[C@@]1(OC(=O)CC)[C@@H](C)C[C@H]2[C@@H]3CCC4=CC(=O)C=C[C@]4(C)[C@@]3(F)[C@@H](O)C[C@@]21C | 117% | 130% | 111% | 109% | 115% | 97.4% | 106% | 62.7% | 43.5% | 28.3% | 25.4% | 99.3% | 98.8% | 107% | 112% | 112% | 105% | 116% | 95% | 84.5% | 16.9% | 18.8% | 110% | 112% | 117% | 115% | 118% | 136% | 108% | 79.1% | 84.3% | 26.4% | 23.9%
OC[C@H](Cc1ccccc1)Nc1nc(Oc2ccc3c(c2)CCC3)nc2c1ncn2Cc1ccc(-c2ccccc2)cc1 | 95.3% | 100% | 83.5% | 123% | 86.9% | 98.5% | 108% | 88.6% | 99.5% | 87.2% | 96.7% | 79.7% | 83.2% | 84.8% | 96.4% | 102% | 89.7% | 90.3% | 92.2% | 98.8% | 90.5% | 90.2% | 90.7% | 84% | 102% | 95.6% | 98.5% | 101% | 116% | 96.7% | 100% | 114% | 96.3%
CC(=O)NC(CS)C(=O)O (centres undefined) | 81.1% | 93.2% | 104% | 82.7% | 96.9% | 81.6% | 78.8% | 97% | 78.2% | 26.7% | 27.5% | 72.7% | 81.1% | 75.3% | 74.4% | 75.8% | 75.2% | 82.7% | 79.5% | 84.5% | 30.5% | 70.4% | 81.1% | 77.8% | 86.7% | 88.9% | 88.1% | 75.8% | 85.6% | 80.1% | 90.7% | 27.8% | 75.9%
